Assay results published in patent US20230255864A1, “NOVEL COMPOSITIONS COMBINING HEMP DERIVATIVES AND AT LEAST ONE PEPTIDE AND USE THEREOF” (FRANCE COSMEPHYL-LAB, priority 2020, published 2023).
Several values for one entry are separate records, joined by “and”; a condition that tells them apart may be missing. Equal values may be shown once.

Test system: murine macrophages (RAW 267.4 cell line) stimulated with LPS from E. coli
Assay: In vitro anti-inflammatory test: inhibition of NO production in LPS-stimulated murine macrophages (Griess reaction)
Type: cell-based
Settings: for Anti-inflammatory ratio: ratio between anti-inflammatory activity and toxicity (IC50 NO release and IC50 cell viability)
Text: Low-grade inflammation is strongly implicated in degenerative processes in human skin such as photoaging and atopy. The reduction of low-intensity inflammatory reactions by topical products may be necessary in the event of cutaneous aggression, to obtain optimal healing and restore the physiological balance of human skin. In order to identify new anti-inflammatory candidates, an in vitro anti-inflammatory test was developed with a murine cell line: the murine macrophage test RAW 267.4. This test was used to monitor the inhibitory effects of chemical compounds or natural extracts on the low-intensity inflammatory cascade leading to overproduction of nitrogen oxide (NO) in the endothelial wall of blood vessels.
The study was carried out to evaluate the ability of cannabidiol, palmitoyl tripeptide-8 (active ingredient in Neutrazen™), and their mixture to inhibit the pro-inflammatory cascade leading to the production of NO in murine macrophages stimulated by liposaccharides (LPS).
The in vitro anti-inflammatory test is based on the ability of murine macrophages to generate a strong inflammatory response when stimulated by antigens such as LPS. Immobilized murine macrophages (RAW 267.4 cell line) are stimulated with LPS from E. coli and exposed for 24 hours. At the end of the incubation period, the production of NO is evaluated indirectly by measuring the accumulation of nitrite/nitrate, stable final products of the oxidation of NO, in the culture medium using a method spectrophotometric based on the Griess reaction.
MURINS RAW 267.4 Macrophage cell line (Sigma-Aldrich, No. P6110401, Lot. 091006), low number of passages (less than 50).
Complete medium: DMEM with stabilized L-glutamine (Dulbecco's Minimum Essential Medium, PAN BIOTECH. Lot 974251) supplemented with Penicillin 100 IU/ml and streptomycin 100 μg/m1 (PAN BIOTECH, Lot 225614), and 10% inactivated calf serum (PAN BIOTECH, Lot P460518), pH 7.2, freshly prepared, stored for less than 3 weeks.
Cannabidiol (CBD) is diluted in DMSO (10 mg/mL storage solution), and subjected to an ultrasonic bath for 20 minutes. The Neutrazen™ solution is diluted in PBS (Phosphate buffer saline, Sigma-Aldrich).
The negative control: DMSO 1% The positive control: Dexamethasone (Sigma-Aldrich) 1-5-10-50-100 μM.
RAW 267.4 murine macrophages were inoculated into 48-well tissue culture plates at a concentration of 1.10^5 cells/ml (200 μl/well) and incubated for 24 hours at 37° C. (5% CO2).
At the end of the incubation period, the culture medium was replaced with 200 μl of medium containing the appropriate concentrations of the material to be tested, and the cells were incubated at 37° C. (5% CO2) for one hour.
At the end of the incubation period, pro-inflammatory E. coli LPS was added to the cell cultures (1 μg/ml. Then the cells were incubated at 37° C. (5% CO2) for 24 hours.
The amount of NO released was measured in the culture supernatant by the Griess reaction. 100 μl of the supernatants were transferred into the wells of a 96-well tissue culture plate, and modified Griess reagent (SIGMA-ALDRICH) were added to each well. After a period of 15 min at room temperature, the Optical Density (OD) of each well was read at a wavelength of 540 nm by an Infinite M200 Pro fluorescence-luminescence reader (TECAN).
The concentrations of test material causing a 50% decrease in NO release (IC50 (NO release)) and a 50% decrease in cell viability (IC50 (cell viability)) respectively were calculated using TableCurve software Version 2.0.
The anti-inflammatory ratio corresponds to the ratio between anti-inflammatory activity and toxicity. It is expressed as follows: […]
Analysis of the anti-inflammatory activity and of the cell viability of the cannabidiol/palmitoyl tripeptide-8 (Neutrazen™) association in a mixture by isobologram analysis.

## C=C(C)[C@@H]1CCC(C)=C[C@H]1c1c(O)cc(CCCCC)cc1O [CBD]
CBD 0.01 weight % in mixture with NeutraZen 0.01%
  NO production (% as compared to the negative control): 94.48% and 98.73% and 100.63%
CBD 0.01 weight % in mixture with NeutraZen 0.025%
  NO production (% as compared to the negative control): 98.77% and 101.91% and 100.00%
CBD 0.01 weight % in mixture with NeutraZen 0.05%
  NO production (% as compared to the negative control): 100.00% and 103.82% and 103.16%
CBD 0.01 weight % in mixture with NeutraZen 0.1%
  NO production (% as compared to the negative control): 101.23% and 103.82% and 98.10%
CBD 0.025 weight % in mixture with NeutraZen 0.01%
  NO production (% as compared to the negative control): 87.12% and 89.17% and 92.41%
CBD 0.025 weight % in mixture with NeutraZen 0.025%
  NO production (% as compared to the negative control): 92.64% and 96.18% and 96.84%
CBD 0.025 weight % in mixture with NeutraZen 0.05%
  NO production (% as compared to the negative control): 93.87% and 100.00% and 98.10%
CBD 0.025 weight % in mixture with NeutraZen 0.1%
  NO production (% as compared to the negative control): 103.07% and 101.27% and 100.63%
CBD 0.05 weight % in mixture with NeutraZen 0.01%
  NO production (% as compared to the negative control): 84.66% and 85.99% and 88.61%
CBD 0.05 weight % in mixture with NeutraZen 0.025%
  NO production (% as compared to the negative control): 84.66% and 87.90% and 87.34%
CBD 0.05 weight % in mixture with NeutraZen 0.05%
  NO production (% as compared to the negative control): 84.05% and 86.62% and 87.97%
CBD 0.05 weight % in mixture with NeutraZen 0.1%
  NO production (% as compared to the negative control): 79.75% and 84.71% and 82.28%
CBD 0.1 weight % in mixture with NeutraZen 0.01%
  NO production (% as compared to the negative control): 80.37% and 77.07% and 85.44%
CBD 0.1 weight % in mixture with NeutraZen 0.025%
  NO production (% as compared to the negative control): 79.75% and 80.89% and 82.28%
CBD 0.1 weight % in mixture with NeutraZen 0.05%
  NO production (% as compared to the negative control): 79.75% and 79.62% and 83.54%
CBD 0.1 weight % in mixture with NeutraZen 0.1%
  NO production (% as compared to the negative control): 72.39% and 74.52% and 74.68%
CBD 0.25 weight % in mixture with NeutraZen 0.01%
  NO production (% as compared to the negative control): 53.37% and 61.15% and 60.76%
CBD 0.25 weight % in mixture with NeutraZen 0.025%
  NO production (% as compared to the negative control): 47.24% and 49.04% and 51.90%
CBD 0.25 weight % in mixture with NeutraZen 0.05%
  NO production (% as compared to the negative control): 47.24% and 52.87% and 47.47%
CBD 0.25 weight % in mixture with NeutraZen 0.1%
  NO production (% as compared to the negative control): 50.92% and 43.95% and 50.00%
CBD 0.5 weight % in mixture with NeutraZen 0.01%
  NO production (% as compared to the negative control): 0% and 0.63%
CBD 0.5 weight % in mixture with NeutraZen 0.025%
  NO production (% as compared to the negative control): 0%
CBD 0.5 weight % in mixture with NeutraZen 0.05%
  NO production (% as compared to the negative control): 0% and 4.46% and 1.27%
CBD 0.5 weight % in mixture with NeutraZen 0.1%
  NO production (% as compared to the negative control): 0% and 1.27%
CBD 1 weight % in mixture with NeutraZen 0.01%
  NO production (% as compared to the negative control): 0%
CBD 1 weight % in mixture with NeutraZen 0.025%
  NO production (% as compared to the negative control): 0%
CBD 1 weight % in mixture with NeutraZen 0.05%
  NO production (% as compared to the negative control): 0%
CBD 1 weight % in mixture with NeutraZen 0.1%
  NO production (% as compared to the negative control): 0%
CBD 2.5 weight % in mixture with NeutraZen 0.01%
  NO production (% as compared to the negative control): 0%
CBD 2.5 weight % in mixture with NeutraZen 0.025%
  NO production (% as compared to the negative control): 0%
CBD 2.5 weight % in mixture with NeutraZen 0.05%
  NO production (% as compared to the negative control): 0%
CBD 2.5 weight % in mixture with NeutraZen 0.1%
  NO production (% as compared to the negative control): 0%
non-linear regression of 3 series of experiments, weight %, for mixtures CBD concentration at the fixed Neutrazen concentration
  IC50-NO release: 0.319 ± 0.006%
  Anti-inflammatory ratio: <1
Listed as cannabidiol
  Anti-inflammatory ratio: less than 1
Sample alone at 0.01 weight %
  NO production (% as compared to the negative control): 99.39% and 100.64% and 102.53%
Sample alone at 0.025 weight %
  NO production (% as compared to the negative control): 96.93% and 97.45% and 98.10%
Sample alone at 0.05 weight %
  NO production (% as compared to the negative control): 97.55% and 89.17% and 93.04%
Sample alone at 0.1 weight %
  NO production (% as compared to the negative control): 95.09% and 99.36% and 99.37%
Sample alone at 0.25 weight %
  NO production (% as compared to the negative control): 77.91% and 80.25% and 81.65%
Sample alone at 0.5 weight %
  NO production (% as compared to the negative control): 2.45% and 5.10% and 2.53%
Sample alone at 1 weight %
  NO production (% as compared to the negative control): 0.61% and 1.91% and 1.90%
Sample alone at 2.5 weight %
  NO production (% as compared to the negative control): 0.00% and 2.55% and 1.27%
